Data as given in US20150004631A1, “Plasmodium falciparum HLA class I restricted T-cell epitopes” (priority 2013, published 2015).
No end group written: not given here.

Key:
Format in all cases: cell-based, human
PBMC [1] = assay: ELISpot IFN-γ assay, PBMC of Ad5-PfCA immunized volunteers (Gp1); details: for ELISpot activity of 15 mer peptide: v005, 1 month PBMC
Method: […] In these studies, IFN-γ activity was measured in response to exposure to the peptide pools. The assays were conducted essentially as described by Wang, et al., Proc. Natl. Acad. Sci. (U.S.A.), 98: 10817-22.
The stimulation of circulating antigen-specific T cell lymphocytes was evaluated by measurement of γ-IFN induction by ELISPOT. The ELISpot assay was conducted using thawed cryopreserved PBMC at 200K cells per well. Pre-challenge cells were taken at day 21 and day 22 post AdPfCA vaccination. Cells were suspended in […] complete medium and were stimulated with AMA1 peptides suspended in […] of complete medium. Peptide concentrations used in assays was 10 μg/ml of each peptide tested. Cultures were incubated for 36 h at 37° C., 5% CO2. Depending on availability of cells, each PBMC sample was assayed in duplicate, triplicate, or quadruplicate and the number of IFN-γ-secreting cells recognized as spot-forming cells (SFC) was enumerated using an automated ELISpot reader. In duplicate assays, all values were used in analysis. For triplicate or quadruplicate assays, outliers were rejected if any single value contributed more than 50% of the standard deviation of the triplicate (or quadruplicate) and if its value was three-fold greater or less than the average of the remaining two (or three) values. The mean spot forming cells (SFCs) obtained in negative control wells were subtracted from the value of each test well from the same sample. Negative counts generated by this background subtraction were converted to zero. The mean spot number of the test sample was then calculated and expressed as SFC/million PBMCs. Values obtained with pre-vaccinated samples were subtracted from the post-vaccination values.

[2] = tested on: CD4+ or CD8+ T cell depleted PBMC; assay: ELISpot IFN-γ assay after CD4+ or CD8+ T cell depletion of PBMC (Example 1); details: versus control depletion
Method: PBMC population depletion was conducted using anti-human CD4+ and anti-CD8^+ coated Dynabeads™ M-450 (Dynal, Great Neck, N.Y.) following the manufacturer's instructions. Mock depletion was done with Dynabeads coated with Sheep anti-mouse IgG. Flow cytometry confirmed that T-cell subset depletions were >99% in all experiments. The data is presented as the % effect (decrease) in activity after T cell subset depletion.
Finally, we wanted to confirm that indeed the responses to AMA14e were mediated by CD8^+ T cells. We compared activity to AMA14e in ELISpot depletion assays and ICS CD4^+ or CD8^+ T cell IFN-γ assays with Ap1-12 and recombinant AMA1 protein with v001 and v005 (FIG. 3). CD8^+ T cell depletion reduced ELISpot activity to AMA14e by about 85% in v001 and 95% in v005.

CD4+ and CD8+ T cells = assay: Intracellular cytokine staining (ICS) of PBMC; details: for CD8^+ T cell IFN-γ response in ICS: HLA-matched volunteers, compared with parent peptide pool, FIG. 1 upper panel; for multifunctional CD8^+ T cell responses in ICS: v008 and v012, any two of IFN-γ, IL-2, TNF-α, FIG. 1 lower panel
Method: ICS was performed on PBMCs with costimulatory antibodies anti-CD28 and […] (obtained from BD Bioscience™, San Jose, Calif.). The peptides were used at the same concentrations as in ELISpot assays. Stimulants were added t cells and incubated at 37° C. with 5% CO2 for 2 hr. Golgi Plug™ (Brefeldin A) (BD Bioscience™, San Jose, Calif.) was added at a final concentration of 0.6 μL/mL and incubated at 37° C. with 5% CO2 overnight. Cells were stained with anti-CD3 (Alexa Fluor 700™), anti-CD4 (PerCP™), and anti-CD8 Pacific Blue™ (obtained from BD Bioscience™, San Jose, Calif.). and 1 μg/mL of live/dead fixable blue dye, incubated and washed. Cells were permeabilized with Cytofix/Cytoperm™ solution (obtained from BD Bioscience™, San Jose, Calif.), incubated and washed. Cells were stained intracellularly with anti-CD3 (Alexa Fluor 700™), anti-CD4 (PerCP™), and anti-CD8 Pacific Blue™, anti-IFN-γ FITC, anti-TNF PE, and anti-IL2 APC, incubated and washed. Cells were resuspended and the entire available sample was acquired by flowcytometry. The gating strategy included progressively measuring total cells; viable cells only; lymphocytes; T cells; CD4^+ CD8^+ populations; and a specific cell type expressing a specific cytokine. Histograms were used to determine the total production of IFN-γ, IL2, and TNF for the CD4^+ and CD8^+ populations. Boolean gates were used to determine cells producing combinations of cytokines.
In these studies, T cells containing IFN-γ, IL2, or TNFα, were gated into different subsets: IFN-γ+, IL2+, TNFα−; IFN-γ+, IL2−, TNFα+; IFN-γ+, IL2+, TNFα+; or IFN-γ+, IL2−, TNFα− T cells, and stimulated with the predicted epitopes and their parent peptide pool. The frequency of CD8^+ T cells producing total IFN-γ was far greater than CD4^+ T cell responses (FIG. 1, upper panel), which were extremely low.

PBMC [3] = assay: ELISpot IFN-γ assay, PBMC of AdPfCA / DNA prime-AdPfCA boost volunteers (Example 2); details: minimal epitope contained in Ap10; primarily CD8^+
From the text: To more clearly define immunological active regions of AMA1, PBMCs were isolated from AMA1 immunized volunteers. Two groups of volunteers, i.e., Gp 1 (from example 1, above) and Gp2, received 2×10^10 particle units of AdPfCA (NMRC-M3V-Ad-PfCA, NMRC+Multi-antigen Multi-stage, Malaria Vaccine+Adenovector+P. falciparum CSP & AMA1 antigens). The vaccine is a combination of two separate recombinant Ad5 constructs, one expressing full length CSP and the other expressing full length apical membrane antigen 1 (AMA1). AdPfCA expressed the AMA1 regions A1 through A12. Twenty-eight (28) days later, PBMC's were collected.
In a third group (termed preCh in FIG. 7 and FIG. 8), fifteen volunteers were primed with three doses (2 mg/dose) with one month between doses. Sixteen weeks after the final DNA priming dose, each volunteer received 2×10^10 particle units of AdPfCA. PBMC's were collected on day 22-23 after receiving AdPfCA. […]
The stimulation of circulating antigen-specific T cell lymphocytes was evaluated by measurement of γ-IFN induction by ELISPOT. […] Depending on availability of cells, each PBMC sample was assayed in duplicate, triplicate, or quadruplicate and the number of IFN-γ-secreting cells recognized as spot-forming cells (SFC) was enumerated using an automated ELISpot reader. […] The mean spot number of the test sample was then calculated and expressed as SFC/million PBMCs. […]

FKADRYKSHGKGYNW [Ap8-6]
IFN-γ ELISpot activity of individual 15 mer peptide (PBMC [1]; Volunteer 012): 143 SFC/10^6

REHPKEYEYPLHQEH [Ap1-12]
IFN-γ ELISpot activity of individual 15 mer peptide (PBMC [1]; Volunteer 002): 66 SFC/10^6
IFN-γ ELISpot activity of individual 15 mer peptide (PBMC [1]; Volunteer 005): 118 SFC/10^6

INEHREHPKEYEYPL [Ap1-11]
IFN-γ ELISpot activity of individual 15 mer peptide (PBMC [1]; Volunteer 002): 180 SFC/10^6
IFN-γ ELISpot activity of individual 15 mer peptide (PBMC [1]; Volunteer 005): 322 SFC/10^6
% effect on ELISpot activity, CD4 dep ([2]; V002): −18%
% effect on ELISpot activity, CD8 dep ([2]; V002): −94%
% effect on ELISpot activity, CD4 dep ([2]; V005): −37%
% effect on ELISpot activity, CD8 dep ([2]; V005): −100%

TLDEMRHFY [Ep # 8]
CD8^+ T cell IFN-γ response in ICS (CD4+ and CD8+ T cells): equal or more CD8^+ IFN-γ than the parent peptide pool
ELISpot 4m, predicted 8-10 mer epitope (PBMC [1]; Vol 002, PBMC 4 months): 51

CNKLVFELSASDQPK [Ap7-7]
IFN-γ ELISpot activity of individual 15 mer peptide (PBMC [1]; Volunteer 001): 77 SFC/10^6

TSNNEVVVKEEYKDE [Ap10-13]
IFN-γ ELISpot activity of individual 15 mer peptide (PBMC [1]; Volunteer 001): 250 SFC/10^6
IFN-γ ELISpot activity of individual 15 mer peptide (PBMC [1]; Volunteer 012): 233 SFC/10^6
% effect on ELISpot activity, CD4 dep ([2]; V001): +148%
% effect on ELISpot activity, CD8 dep ([2]; V001): −88%
% effect on ELISpot activity, CD4 dep ([2]; V012): +14%
% effect on ELISpot activity, CD8 dep ([2]; V012): −100%

NSTCRFFVCK (listed as Plasmodium falciparum)
T-cell response (IFN-γ SFC) (PBMC [3]): significant T-cell response

CEIFNVKPTCLINNS [Ap8-12]
IFN-γ ELISpot activity of individual 15 mer peptide (PBMC [1]; Volunteer 005): 127 SFC/10^6

MTLDEMRHFYKDNKY [Ap4-10]
IFN-γ ELISpot activity of individual 15 mer peptide (PBMC [1]; Volunteer 002): 82 SFC/10^6
IFN-γ ELISpot activity of individual 15 mer peptide (PBMC [1]; Volunteer 005): 118 SFC/10^6

HVNEFPAIDLFECNK [Ap7-4]
IFN-γ ELISpot activity of individual 15 mer peptide (PBMC [1]; Volunteer 001): 96 SFC/10^6

RYKSHGKGY [Ep # 14, RYKSHGKGY]
CD8^+ T cell IFN-γ response in ICS (CD4+ and CD8+ T cells): very weak CD8^+ IFN-γ responses
multifunctional CD8^+ T cell responses in ICS (CD4+ and CD8+ T cells): did not appear to induce multifunctional responses
ELISpot 7m, predicted 8-10 mer epitope (PBMC [1]; Vol 012, PBMC 7 months): 11
recognition of minimal epitope in ELISpot (PBMC [1]; v012, criteria for positive 40 SFC/million): negative

LLSAFEFTYMINFGR [Ap1-3]
IFN-γ ELISpot activity of individual 15 mer peptide (PBMC [1]; Volunteer 001): 48 SFC/10^6
% effect on ELISpot activity, CD4 dep ([2]; V001): −32%
% effect on ELISpot activity, CD8 dep ([2]; V001): −56%

KEYEYPLHQEHTYQQ [Ap1-13]
IFN-γ ELISpot activity of individual 15 mer peptide (PBMC [1]; Volunteer 001): 42 SFC/10^6
% effect on ELISpot activity, CD4 dep ([2]; V001): +133%
% effect on ELISpot activity, CD8 dep ([2]; V001): −76%

HPKEYEYPL (listed as Plasmodium falciparum) [Ep # 9]
CD8^+ T cell IFN-γ response in ICS (CD4+ and CD8+ T cells): equal or more CD8^+ IFN-γ than the parent peptide pool

NEVVVKEEY [Ep # 1, NEVVVKEEY]
CD8^+ T cell IFN-γ response in ICS (CD4+ and CD8+ T cells): equal or more CD8^+ IFN-γ than the parent peptide pool

LMSPMTLDEMRHFYK [Ap4-9]
IFN-γ ELISpot activity of individual 15 mer peptide (PBMC [1]; Volunteer 002): 189 SFC/10^6
IFN-γ ELISpot activity of individual 15 mer peptide (PBMC [1]; Volunteer 005): 395 SFC/10^6
% effect on ELISpot activity, CD4 dep ([2]; V005): −32%
% effect on ELISpot activity, CD8 dep ([2]; V005): −100%

ETQKCEIFNVKPTCL [Ap8-11]
IFN-γ ELISpot activity of individual 15 mer peptide (PBMC [1]; Volunteer 001): 48 SFC/10^6
IFN-γ ELISpot activity of individual 15 mer peptide (PBMC [1]; Volunteer 005): 218 SFC/10^6
IFN-γ ELISpot activity of individual 15 mer peptide (PBMC [1]; Volunteer 008): 48 SFC/10^6

ETQKCEIFNV (listed as Plasmodium falciparum) [Ep # 10]
CD8^+ T cell IFN-γ response in ICS (CD4+ and CD8+ T cells): very weak CD8^+ IFN-γ responses
multifunctional CD8^+ T cell responses in ICS (CD4+ and CD8+ T cells): did not appear to induce multifunctional responses

EMRHFYKDNKYVKNL [Ap4-11]
IFN-γ ELISpot activity of individual 15 mer peptide (PBMC [1]; Volunteer 005): 65 SFC/10^6
ELISpot activity of 15 mer peptide (PBMC [1]): 65 sfc/m

NEFPAIDLF (listed as Plasmodium falciparum) [Ep # 2]
CD8^+ T cell IFN-γ response in ICS (CD4+ and CD8+ T cells): equal or more CD8^+ IFN-γ than the parent peptide pool

NQYLKDGGFAFPPTE [Ap4-5]
IFN-γ ELISpot activity of individual 15 mer peptide (PBMC [1]; Volunteer 005): 50 SFC/10^6
ELISpot activity of 15 mer peptide (PBMC [1]): 50 sfc/m

QNSDVYRPINEHREH [Ap1-9]
IFN-γ ELISpot activity of individual 15 mer peptide (PBMC [1]; Volunteer 001): 48 SFC/10^6

EDIPHVNEFPAIDLF [Ap7-3]
IFN-γ ELISpot activity of individual 15 mer peptide (PBMC [1]; Volunteer 001): 139 SFC/10^6
